Results from patent US20130303533A1, “AZOLOPYRIDINE AND AZOLOPYRIMIDINE COMPOUNDS AND METHODS OF USE THEREOF” (AMBIT BIOSCIENCES CORPORATION, priority 2010, published 2013).
pIC50, pKd: −log10 of the molar value.

Tests used:
JAK2 = target: T1, JAK2 (Homo sapiens, UniProt O60674); assay: Competition binding assay to determine binding constants (Kd), JAK2
T1 construct: made in house; host or cells: T7 phage display or HEK-293 cells (alternatives)
Excerpt: (§1) Competition Binding Assay to Determine Binding Constants (Kd) of the Compounds Against JAK Kinases
(§2) Competition binding assays used herein were developed, validated and performed as described in Fabian et al., Nature Biotechnology 2005, 23, 329-336. Kinases were produced as fusions to T7 phage (See, Fabian et al. or WO04/015142) or alternatively, the kinases were expressed in HEK-293 cells and subsequently tagged with DNA for PCR detection (See, WO08/005,310). For the binding assays, streptavidin-coated magnetic beads were treated with biotinylated affinity ligands for 30 min at rt to generate affinity resins. The liganded beads were blocked with excess biotin and washed with blocking buffer (SeaBlock (Pierce), 1% BSA, 0.05% Tween 20, 1 mM DTT) to remove unbound ligand and to reduce non-specific binding. Binding reactions were assembled by combining kinase, liganded affinity beads, and test compounds in 1× binding buffer (20% SeaBlock, 0.17×PBS, 0.05% Tween 20, 6 mM DTT). Test compounds were prepared as 100× stocks in DMSO and rapidly diluted into the aqueous environment. DMSO was added to control assays lacking a test compound. Primary screen interactions were performed in polypropylene 384-well plates in a final volume of 34 μL, while Kd determinations were performed in polystyrene 96-well plates in a final volume of 135 μL. The assay plates were incubated at room temperature with shaking for 1 hour, long enough for binding reactions to reach equilibrium, and the affinity beads were washed extensively with wash buffer (1×PBS, 0.05% Tween 20) to remove unbound protein. The beads were then resuspended in elution buffer (1×PBS, 0.05% Tween 20, 2 μM non-biotinylated affinity ligand) and incubated at room temperature with shaking for 30 min. The kinase concentration in the eluates was measured by quantitative PCR. Each kinase was tested individually against each compound. Kds were determined using eleven serial threefold dilutions. A selectivity score, which is a quantitative measure of selectivity of a compound against a panel of enzymes, may be calculated for a compound by dividing the number of enzymes for which a compound meets a set criteria, (for example, a binding constant of 100 nM or less), by the total number of enzymes tested.

TYK2 = target: T2, TYK2 (Homo sapiens, UniProt P29597); assay: Competition binding assay to determine binding constants (Kd), TYK2
T2 construct: made in house; host or cells: T7 phage display or HEK-293 cells (alternatives)
Excerpt: as §1, §2

JAK3 = target: T3, JAK3 (Homo sapiens, UniProt P52333); assay: Competition binding assay to determine binding constants (Kd), JAK3
T3 construct: made in house; host or cells: T7 phage display or HEK-293 cells (alternatives)
T3 sequence (P52333 1-1124): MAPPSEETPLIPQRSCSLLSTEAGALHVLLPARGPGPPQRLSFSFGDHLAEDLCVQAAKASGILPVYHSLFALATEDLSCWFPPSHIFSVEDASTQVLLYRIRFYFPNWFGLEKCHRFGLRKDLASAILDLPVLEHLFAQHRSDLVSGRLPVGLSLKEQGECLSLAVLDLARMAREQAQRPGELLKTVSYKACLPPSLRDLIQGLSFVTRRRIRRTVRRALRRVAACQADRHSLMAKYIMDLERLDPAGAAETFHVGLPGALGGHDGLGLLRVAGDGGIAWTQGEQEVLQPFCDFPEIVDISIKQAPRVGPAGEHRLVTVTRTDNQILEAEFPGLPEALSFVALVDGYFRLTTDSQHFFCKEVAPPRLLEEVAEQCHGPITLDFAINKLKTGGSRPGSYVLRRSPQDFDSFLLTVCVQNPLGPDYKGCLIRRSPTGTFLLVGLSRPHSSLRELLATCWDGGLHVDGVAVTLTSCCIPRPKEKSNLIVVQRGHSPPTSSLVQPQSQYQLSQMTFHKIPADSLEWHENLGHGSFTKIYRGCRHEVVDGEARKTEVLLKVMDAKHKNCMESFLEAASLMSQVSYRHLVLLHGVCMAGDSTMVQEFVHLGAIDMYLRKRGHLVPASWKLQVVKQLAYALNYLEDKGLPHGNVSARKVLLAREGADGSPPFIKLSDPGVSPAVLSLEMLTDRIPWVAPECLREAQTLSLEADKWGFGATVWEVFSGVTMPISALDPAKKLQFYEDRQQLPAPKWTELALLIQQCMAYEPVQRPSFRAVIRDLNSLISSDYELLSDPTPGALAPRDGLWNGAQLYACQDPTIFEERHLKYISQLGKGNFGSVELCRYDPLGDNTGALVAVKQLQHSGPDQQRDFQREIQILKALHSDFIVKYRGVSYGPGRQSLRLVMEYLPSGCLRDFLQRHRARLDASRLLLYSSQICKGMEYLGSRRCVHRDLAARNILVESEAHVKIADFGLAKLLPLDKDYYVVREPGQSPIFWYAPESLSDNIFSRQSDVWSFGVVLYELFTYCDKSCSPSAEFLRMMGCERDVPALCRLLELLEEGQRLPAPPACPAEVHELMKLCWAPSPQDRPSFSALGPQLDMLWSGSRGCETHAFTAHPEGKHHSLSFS
Excerpt: as §1, §2

[1] = tested on: GM-CSFR/JAK2/STAT5 pathway; assay: CSTF-1 cell-based reporter assay; conditions: Homo sapiens; csTF-1 cells, GM-CSF at 2 ng/mL, 4 hours, beta-lactamase reporter; read-out: Cell Assay: CS TF-1 reporter assay IC50
Protocol: CSTF-1 Cell-Based Reporter Assay
CSTF-1 cells are derived from the human erythroleukemia cell line that is growth dependent on GM-CSF and has an intact GM-CSFR/JAK2/STAT5 pathway. The cell line contains stably integrated beta-lactamase reporter gene under the control of the […] (irf 1) response element recognized by the activated transcription factor STAT5. csTF-1 cells (Invitrogen K1219) were washed with assay media (97% OPTIMEM/0.5% dialyzed FBS/0.1 mM NEAA/1 mM Na pyr/P/S) and seeded in the same media at 5×10^5 cell/mL in T150 flask. After 16 hour incubation, cells were seeded at 2×10^5 cell/well in 50 μl volume, into Costar, clear bottom, 96-well assay plates. Serial dilutions of compounds were added to the plates with final DMSO concentration at 0.5% and GM-CSF at 2 ng/mL and the plates were then incubated at 30° C. and 5% CO2 for 4 hours. The plates were brought to room temperature before adding Substrate Mixture according to manufacturer's protocol (Invitrogen, Catalog #K1085). The assay plates containing the substrate mixture were incubated in the dark at room temperature for 2 hours. Blue and green fluorescence was measured with excitation at 409 nm and emission at 460 nm (for blue) and excitation at 409 nm and emission at 530 nm (for green) using Spectra Max Gemini EM.

T2 sequence (P29597 whole entry): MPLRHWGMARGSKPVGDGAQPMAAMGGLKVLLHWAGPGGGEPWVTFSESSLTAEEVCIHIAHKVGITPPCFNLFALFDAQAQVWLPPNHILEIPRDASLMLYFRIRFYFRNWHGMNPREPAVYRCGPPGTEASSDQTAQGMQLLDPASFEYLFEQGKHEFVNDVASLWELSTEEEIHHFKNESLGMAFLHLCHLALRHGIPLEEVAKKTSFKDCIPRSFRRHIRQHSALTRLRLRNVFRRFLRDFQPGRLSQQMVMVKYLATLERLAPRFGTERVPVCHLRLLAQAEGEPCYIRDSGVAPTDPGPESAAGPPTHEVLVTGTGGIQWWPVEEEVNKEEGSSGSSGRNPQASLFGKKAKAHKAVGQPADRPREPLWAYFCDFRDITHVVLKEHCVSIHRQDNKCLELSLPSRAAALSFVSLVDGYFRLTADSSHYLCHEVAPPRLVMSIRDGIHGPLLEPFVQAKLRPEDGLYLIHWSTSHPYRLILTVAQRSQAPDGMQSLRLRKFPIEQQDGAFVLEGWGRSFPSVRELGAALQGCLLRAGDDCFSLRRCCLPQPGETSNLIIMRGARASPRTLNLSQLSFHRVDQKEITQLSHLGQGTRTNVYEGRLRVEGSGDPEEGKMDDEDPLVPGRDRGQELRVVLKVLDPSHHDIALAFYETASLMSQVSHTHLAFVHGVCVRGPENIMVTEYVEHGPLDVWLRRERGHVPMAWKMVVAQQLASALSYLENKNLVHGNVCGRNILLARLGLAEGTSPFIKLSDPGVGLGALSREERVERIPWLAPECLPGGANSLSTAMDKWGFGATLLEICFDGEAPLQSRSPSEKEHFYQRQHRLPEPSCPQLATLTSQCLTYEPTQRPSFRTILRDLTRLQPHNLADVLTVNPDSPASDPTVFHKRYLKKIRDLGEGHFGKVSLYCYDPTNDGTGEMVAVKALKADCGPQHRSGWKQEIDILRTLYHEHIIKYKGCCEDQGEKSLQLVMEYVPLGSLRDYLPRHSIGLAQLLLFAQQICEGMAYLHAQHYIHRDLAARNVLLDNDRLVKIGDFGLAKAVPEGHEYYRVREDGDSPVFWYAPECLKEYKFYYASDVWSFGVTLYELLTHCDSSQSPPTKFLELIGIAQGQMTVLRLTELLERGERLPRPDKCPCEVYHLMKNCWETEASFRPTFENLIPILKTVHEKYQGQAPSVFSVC
T1 sequence (O60674 whole entry): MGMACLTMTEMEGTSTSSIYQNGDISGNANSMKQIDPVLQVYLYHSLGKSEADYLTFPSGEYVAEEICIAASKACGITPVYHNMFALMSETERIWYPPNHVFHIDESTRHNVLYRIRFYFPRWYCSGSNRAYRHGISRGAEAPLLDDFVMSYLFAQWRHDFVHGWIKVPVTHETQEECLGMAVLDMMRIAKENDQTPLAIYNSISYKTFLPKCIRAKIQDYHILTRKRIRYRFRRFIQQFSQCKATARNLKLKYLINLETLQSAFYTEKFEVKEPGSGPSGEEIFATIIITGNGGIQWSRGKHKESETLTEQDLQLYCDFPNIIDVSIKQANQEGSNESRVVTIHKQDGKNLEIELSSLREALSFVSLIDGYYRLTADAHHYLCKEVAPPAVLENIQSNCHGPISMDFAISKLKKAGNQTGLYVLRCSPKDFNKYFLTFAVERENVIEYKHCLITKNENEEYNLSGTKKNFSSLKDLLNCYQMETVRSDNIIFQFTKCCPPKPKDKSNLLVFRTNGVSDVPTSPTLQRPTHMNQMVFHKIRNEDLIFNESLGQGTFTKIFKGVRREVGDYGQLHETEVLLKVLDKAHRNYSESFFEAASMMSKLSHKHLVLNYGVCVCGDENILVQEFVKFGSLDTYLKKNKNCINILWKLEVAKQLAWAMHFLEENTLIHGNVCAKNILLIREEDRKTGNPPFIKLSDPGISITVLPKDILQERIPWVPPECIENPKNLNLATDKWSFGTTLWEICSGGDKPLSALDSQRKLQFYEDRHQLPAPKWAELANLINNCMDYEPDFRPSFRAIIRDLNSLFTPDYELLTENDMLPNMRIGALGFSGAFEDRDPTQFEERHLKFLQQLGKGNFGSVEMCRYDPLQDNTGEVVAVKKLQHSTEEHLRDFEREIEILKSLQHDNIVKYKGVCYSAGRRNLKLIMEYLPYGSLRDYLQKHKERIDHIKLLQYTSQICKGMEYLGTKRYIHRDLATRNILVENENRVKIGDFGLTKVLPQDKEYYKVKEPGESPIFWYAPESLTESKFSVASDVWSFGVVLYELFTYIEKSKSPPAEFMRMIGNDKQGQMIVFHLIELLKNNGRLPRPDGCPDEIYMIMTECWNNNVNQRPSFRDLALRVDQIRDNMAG

SMILES | pKd (JAK2) | pKd (TYK2) | pKd (JAK3) | pIC50 [1]
Cc1cc(Nc2nc(S(=O)(=O)c3ccc(F)cc3)nc3c2ccn3CCN2CCOCC2)n[nH]1 [Example 19, 2-(4-fluorophenylsulfonyl)-N-(5-methyl-1H-pyrazol-3-yl)-7-(2-morpholinoethyl)-7H-pyrrolo[2,3-d]pyrimidin-4-amine] | 8.00 to 9.00 | ≥ 8.00 | ≥ 8.00 | ≥ 7.00
Cc1cc(Nc2nc(S(=O)(=O)c3ccc(F)cc3)nc3c2cnn3C(C)(C)C)n[nH]1 [Example 25, 1-tert-butyl-6-(4-fluorophenylsulfonyl)-N-(5-methyl-1H-pyrazol-3-yl)-1H-pyrazolo[3,4-d]pyrimidin-4-amine] | 8.00 to 9.00 | ≥ 8.00 | < 7.00 | 6.30 to 7.00
Cc1cc(Nc2nc(S(=O)(=O)c3ccc(F)cc3)nc3c2cnn3CCN2CCOCC2)n[nH]1 [Example 29, 6-(4-fluorophenylsulfonyl)-N-(5-methyl-1H-pyrazol-3-yl)-1-(2-morpholinoethyl)-1H-pyrazolo[3,4-d]pyrimidin-4-amine] | ≥ 9.00 | ≥ 8.00 | 7.00 to 8.00 | 6.30 to 7.00
Cc1cc(Nc2nc(C(F)(F)c3ccc(F)cc3)nc3[nH]ncc23)n[nH]1 [Example 30, 6-(difluoro(4-fluorophenyl)methyl)-N-(5-methyl-1H-pyrazol-3-yl)-1H-pyrazolo[3,4-d]pyrimidin-4-amine] | ≥ 9.00 | ≥ 8.00 | 7.00 to 8.00 | ≥ 7.00
Cc1cc(Nc2nc(S(=O)(=O)c3ccc(F)cc3)nc3c2cnn3-c2ccccc2)n[nH]1 [Example 31, 6-(4-fluorophenylsulfonyl)-N-(5-methyl-1H-pyrazol-3-yl)-1-phenyl-1H-pyrazolo[3,4-d]pyrimidin-4-amine] | 8.00 to 9.00 | 7.00 to 8.00 | < 7.00 | < 6.30
Cc1cc(Nc2nc(C(F)(F)c3ccc(F)cc3)nc3c2cnn3CCN2CCOCC2)n[nH]1 [Example 32, 6-(difluoro(4-fluorophenyl)methyl)-N-(5-methyl-1H-pyrazol-3-yl)-1-(2-morpholinoethyl)-1H-pyrazolo[3,4-d]pyrimidin-4-amine] | 8.00 to 9.00 | ≥ 8.00 | 7.00 to 8.00 | 6.30 to 7.00
C=Cn1ncc2c(Nc3cc(C)[nH]n3)nc(C(F)(F)c3ccc(F)cc3)nc21 [Example 33, 6-(difluoro(4-fluorophenyl)methyl)-N-(5-methyl-1H-pyrazol-3-yl)-1-vinyl-1H-pyrazolo[3,4-d]pyrimidin-4-amine] | 8.00 to 9.00 | 7.00 to 8.00 | 7.00 to 8.00 | 6.30 to 7.00

Results, then the molecule that gave them:

pKd (JAK2) | pKd (TYK2) | pKd (JAK3) | pIC50 [1] | SMILES
≥ 9.00 | ≥ 8.00 | ≥ 8.00 | 6.30 to 7.00 | Cc1cc(Nc2nc(S(=O)(=O)c3ccc(F)cc3)nc3c2ccn3CCS(C)(=O)=O)n[nH]1 [Example 17, 2-(4-fluorophenylsulfonyl)-N-(5-methyl-1H-pyrazol-3-yl)-7-(2-(methylsulfonyl)ethyl)-7H-pyrrolo[2,3-d]pyrimidin-4-amine]
≥ 9.00 | ≥ 8.00 | ≥ 8.00 | 6.30 to 7.00 | CS(=O)(=O)CCn1ccc2c(Nc3cc[nH]n3)nc(S(=O)(=O)c3ccc(F)cc3)nc21 [Example 18, 2-(4-fluorophenylsulfonyl)-7-(2-(methylsulfonyl)ethyl)-N-(1H-pyrazol-3-yl)-7H-pyrrolo[2,3-d]pyrimidin-4-amine]
≥ 9.00 | ≥ 8.00 | 7.00 to 8.00 | 6.30 to 7.00 | Cc1cc(Nc2nc(C(F)(F)c3ccc(F)cc3)nc3nn(C)cc23)n[nH]1 [Example 20, 6-(difluoro(4-fluorophenyl)methyl)-2-methyl-N-(5-methyl-1H-pyrazol-3-yl)-2H-pyrazolo[3,4-d]pyrimidin-4-amine]
≥ 9.00 | ≥ 8.00 | 7.00 to 8.00 | 6.30 to 7.00 | Cn1cc2c(Nc3cc[nH]n3)nc(C(F)(F)c3ccc(F)cc3)nc2n1 [Example 21, 6-(difluoro(4-fluorophenyl)methyl)-2-methyl-N-(1H-pyrazol-3-yl)-2H-pyrazolo[3,4-d]pyrimidin-4-amine]
≥ 9.00 | ≥ 8.00 | 7.00 to 8.00 | 6.30 to 7.00 | Cc1cc(Nc2nc(S(=O)(=O)c3ccc(F)cc3)nc3c2cnn3CCO)n[nH]1 [Example 23, 2-(6-(4-fluorophenylsulfonyl)-4-(5-methyl-1H-pyrazol-3-ylamino)-1H-pyrazolo[3,4-d]pyrimidin-1-yl)ethanol]
≥ 9.00 | ≥ 8.00 | 7.00 to 8.00 | ≥ 7.00 | CCn1ncc2c(Nc3cc(C)[nH]n3)nc(S(=O)(=O)c3ccc(F)cc3)nc21 [Example 24, 1-ethyl-6-(4-fluorophenylsulfonyl)-N-(5-methyl-1H-pyrazol-3-yl)-1H-pyrazolo[3,4-d]pyrimidin-4-amine]
≥ 9.00 | ≥ 8.00 | 7.00 to 8.00 | 6.30 to 7.00 | Cc1cc(Nc2nc(C(F)(F)c3ccc(F)cc3)nc3c2cnn3C)n[nH]1 [Example 26, 6-(difluoro(4-fluorophenyl)methyl)-1-methyl-N-(5-methyl-1H-pyrazol-3-yl)-1H-pyrazolo[3,4-d]pyrimidin-4-amine]
≥ 9.00 | ≥ 8.00 | 7.00 to 8.00 | 6.30 to 7.00 | Cc1cc(Nc2nc(S(=O)(=O)c3ccc(F)cc3)nc3[nH]ncc23)n[nH]1 [Example 27, 6-(4-fluorophenylsulfonyl)-N-(5-methyl-1H-pyrazol-3-yl)-1H-pyrazolo[3,4-d]pyrimidin-4-amine]
≥ 9.00 | ≥ 8.00 | 7.00 to 8.00 | 6.30 to 7.00 | Cc1cc(Nc2nc(S(=O)(=O)c3ccc(F)cc3)nc3c2cnn3C2CCOCC2)n[nH]1 [Example 28, 6-(4-fluorophenylsulfonyl)-N-(5-methyl-1H-pyrazol-3-yl)-1-(tetrahydro-2H-pyran-4-yl)-1H-pyrazolo[3,4-d]pyrimidin-4-amine]
